Target: T1, telomerase enzyme (Homo sapiens, UniProt O14746)
T1 construct: telomerase enzyme diluted in a buffer
Experiment: Flash Plate-based telomerase assay
Type: biochemical
Details: telomerase inhibition; two hours of incubation at 37°; Flash Plate hybridization readout
Source text: The telomerase activity of the compounds of the invention has been evaluated using a Flash Plate-based assay. […] Other methods for determining the inhibitory concentration of a compound of the invention against telomerase can be employed as will be apparent to a person skilled in the art based on the disclosure herein.
Briefly, the assay mixture is costituted by: • telomerase enzyme diluted in a buffer, the composition of which has been selected to maintain the enzyme activity stable along the duration of the assay. • dNTPs, deoxynucleotides 5′-triphosphate. • biotynilated oligo as primer. • increasing concentrations of test compounds/positive control.
After two hours of incubation at 37° degrees the telomeric repeats added are evaluated by hybridization in solution with a 3′-labeled short oligonucleotide probe.
The extent of hybridization is then quantitated by transferring the reaction mixture in a streptavidin-coated flash plate, where the binding between biotin and streptavidin occurs.
The telomerase activity is proportional to the radioactivity measured and the inhibitory activity of the compounds is evaluated as IC50 using the Sigma Plot fit program.
With the above-described method, IC50 values of the compounds of the present invention were determined.

T1 sequence (O14746 whole entry): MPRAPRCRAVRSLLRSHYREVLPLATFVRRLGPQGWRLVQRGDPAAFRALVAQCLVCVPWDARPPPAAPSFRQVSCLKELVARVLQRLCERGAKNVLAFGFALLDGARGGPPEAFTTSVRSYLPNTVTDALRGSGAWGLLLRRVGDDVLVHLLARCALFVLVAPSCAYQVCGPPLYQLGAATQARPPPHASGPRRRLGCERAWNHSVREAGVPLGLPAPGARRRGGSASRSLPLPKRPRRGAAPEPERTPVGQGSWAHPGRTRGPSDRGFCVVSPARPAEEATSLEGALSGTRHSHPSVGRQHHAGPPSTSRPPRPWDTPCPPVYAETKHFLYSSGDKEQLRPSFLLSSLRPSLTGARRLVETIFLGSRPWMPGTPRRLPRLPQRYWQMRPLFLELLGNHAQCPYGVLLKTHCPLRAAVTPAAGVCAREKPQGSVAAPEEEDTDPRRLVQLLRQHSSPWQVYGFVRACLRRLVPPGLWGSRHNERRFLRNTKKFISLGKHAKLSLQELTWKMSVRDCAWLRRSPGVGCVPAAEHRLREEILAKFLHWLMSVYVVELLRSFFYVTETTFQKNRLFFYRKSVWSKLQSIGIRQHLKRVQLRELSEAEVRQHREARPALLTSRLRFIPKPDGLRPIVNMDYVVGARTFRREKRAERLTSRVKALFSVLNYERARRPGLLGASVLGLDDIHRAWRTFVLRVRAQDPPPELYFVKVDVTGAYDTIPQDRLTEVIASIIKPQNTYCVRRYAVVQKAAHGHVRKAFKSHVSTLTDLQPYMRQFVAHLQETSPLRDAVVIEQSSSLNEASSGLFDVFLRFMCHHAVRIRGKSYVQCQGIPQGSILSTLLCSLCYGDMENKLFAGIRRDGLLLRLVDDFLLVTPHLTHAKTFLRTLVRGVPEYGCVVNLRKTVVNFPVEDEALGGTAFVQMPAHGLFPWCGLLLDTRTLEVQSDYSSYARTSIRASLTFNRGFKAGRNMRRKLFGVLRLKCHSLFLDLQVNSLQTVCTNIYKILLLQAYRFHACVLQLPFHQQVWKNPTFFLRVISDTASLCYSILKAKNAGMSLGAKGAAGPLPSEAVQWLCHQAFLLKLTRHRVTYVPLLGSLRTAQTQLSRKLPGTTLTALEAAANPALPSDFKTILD

| IC50 | Structure (SMILES) |
| --- | --- |
| 3 µM | Nc1nc2c(c(=O)[nH]1)[n+](Cc1ccc(-c3ccccc3)cc1)cn2Cc1ccc(-c2ccccc2)cc1 [Compound 2, 2-amino-7,9-bis[(1,1′-biphenyl)-4-ylmethyl]-6-oxo-6,9-dihydro-1H-purin-7-ium bromide] |
| 4 µM | Nc1nc2c(c(=O)[nH]1)[n+](Cc1ccc(-c3ccccc3)cc1)cn2Cc1ccc2ccccc2c1 [Compound 7, 2-amino-7-([1,1′-biphenyl]-4-ylmethyl)-9-(2-naphthylmethyl)-6-oxo-6,9-dihydro-1H-purin-7-ium bromide] |
| 10 µM | Nc1nc2c(c(=O)[nH]1)[n+](Cc1ccc(Cl)c(Cl)c1)cn2Cc1ccc(Cl)c(Cl)c1 [Compound 4, 2-amino-7,9-bis(3,4-dichlorobenzyl)-6-oxo-6,9-dihydro-1H-purin-7-ium bromide] |
| 10 µM | Nc1nc2c(c(=O)[nH]1)[n+](Cc1ccc3ccccc3c1)cn2Cc1ccc2ccccc2c1 [Compound 1, 2-amino-7,9-bis(2-naphthylmethyl)-6-oxo-6,9-dihydro-1H-purin-7-ium bromide] |
